In this assay the target is Thymidylate synthase (Mus musculus, UniProt P07607). Description: Inhibition of mouse thymidylate synthase in mouse L1210 cells.
Chain of Thymidylate synthase (P07607 whole entry): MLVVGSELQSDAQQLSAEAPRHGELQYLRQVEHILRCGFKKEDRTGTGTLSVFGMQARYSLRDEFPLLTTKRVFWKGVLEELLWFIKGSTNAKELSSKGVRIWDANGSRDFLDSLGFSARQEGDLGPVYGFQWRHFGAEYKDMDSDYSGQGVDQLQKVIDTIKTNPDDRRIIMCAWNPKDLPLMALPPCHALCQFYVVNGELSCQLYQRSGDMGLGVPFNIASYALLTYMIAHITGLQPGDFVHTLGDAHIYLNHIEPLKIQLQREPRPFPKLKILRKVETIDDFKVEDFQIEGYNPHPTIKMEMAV
For the compound `Cc1cn([C@H]2C[C@H](O)[C@@H](OP(=O)(O)O)O2)c(=O)[nH]c1=O`, the Ki turned out to be 138 nM. The compound `CCCc1cn([C@H]2C[C@H](O)[C@@H](OP(=O)(O)O)O2)c(=O)[nH]c1=O` came in with a Ki of 8.12 nM. `O=c1[nH]c(=O)n([C@H]2C[C@H](O)[C@@H](OP(=O)(O)O)O2)cc1O` registered a Ki of 309 nM. Then `O=c1[nH]c(=O)n([C@H]2C[C@H](O)[C@@H](OP(=O)(O)O)O2)cc1[N+](=O)[O-]`, with 2.57 nM; and `O=c1[nH]c(=O)n([C@H]2C[C@H](O)[C@@H](OP(=O)(O)O)O2)cc1I`, with 128 nM; and `O=c1[nH]c(=O)n([C@H]2C[C@H](O)[C@@H](OP(=O)(O)O)O2)cc1CO`, with 269 nM. `CCc1cn([C@H]2C[C@H](O)[C@@H](OP(=O)(O)O)O2)c(=O)[nH]c1=O`: the Ki worked out at 28.1 nM. The same measure for `O=c1[nH]c(=O)n([C@H]2C[C@H](O)[C@@H](OP(=O)(O)O)O2)cc1Br`: 660 nM.

Values taken from BindingDB's records for doi:10.1016/j.bmc.2007.01.021 (Polish Academy of Sciences, 2007).
